Where two headings read alike, the source gives them in different places. Starred links: 1 amine or outer side, 2 acyl side, 3 side chain; linkers in the order of their positions; H or OH if unused. Non-standard residues stand in square brackets, D forms with d. Residues, ends and D or L forms follow the SMILES beside them. *: point of attachment. DOTA = O=C(O)CN1CCN(CC(=O)O)CCN(CC(=O)*)CCN(CC(=O)O)CC1; Sta = CC(C)C[C@H](N)[C@@H](O)CC(=O)O; Bta = N[C@@H](Cc1csc2ccccc12)C(=O)O; X1 = O=C(CN1CCC(N[*:1])CC1)[*:2]; hSer = N[C@@H](CCO)C(=O)O
Assays:
[1] = Biodistribution in PC-3 tumor-bearing CB17-SCID mice; format: in vivo; conditions: mouse, 100 pmol, ^68Ga-labeled, 1 h p.i., n = 4; for tissue to tissue ratio at 1 h: CB17-SCID, iv, total radioactivity; for tissue uptake at 1 h: intravenous
Description: (§1) To establish tumor xenografts, PC-3 cells (5.0 × 10^6 cells per 200 µL) were suspended in a 1/1 mixture (v/v) of Dulbecco’s modified eagle's medium/Ham’s F-12 with Glutamax-I (v/v = 1/1) and Cultrex® Basement Membrane Matrix Type 3 (Trevigen Inc., Gaithersburg, MD, USA) and inoculated subcutaneously onto the right shoulder of CB17-SCID mice (Charles River Laboratories International Inc., Sulzfeld, Germany). Mice (n = 4) were used for experiments when tumor volume has reached 125–500 mm^3 (2–3 weeks after inoculation).
(§2) Biodistribution. […] (n = 4), respectively. Selected organs were removed, weighted and measured in a γ-counter.

PC-3 tumor xenograft = test: as above; format: in vivo; conditions: ^68Ga-labeled; 1 h p.i.; n = 4
Description: as §1, §2

[2] = tumor and blood, read-out: Tumor-to-Blood ratio
[3] = tumor and bone, read-out: Tumor-to-Bone ratio
[4] = tumor and heart, read-out: Tumor-to-Heart ratio
[5] = tumor and intestine, read-out: Tumor-to-Intestine ratio
[6] = tumor and kidney, read-out: Tumor-to-Kidney ratio
[7] = tumor and liver, read-out: Tumor-to-Liver ratio
[8] = tumor and lung, read-out: Tumor-to-Lung ratio
[9] = tumor and muscle, read-out: Tumor-to-Muscle ratio
[10] = tumor and pancreas, read-out: Tumor-to-Pancreas ratio
[11] = tumor and spleen, read-out: Tumor-to-Spleen ratio
[12] = tumor and stomach, read-out: Tumor-to-Stomach ratio
[13] = adrenal, read-out: Uptake in Adrenal
[14] = blood, read-out: Uptake in Blood
[15] = heart, read-out: Uptake in Heart
[16] = intestine, read-out: Uptake in Intestine
[17] = kidney, read-out: Uptake in Kidney
[18] = liver, read-out: Uptake in Liver
[19] = muscle, read-out: Uptake in Muscle
[20] = pancreas, read-out: Uptake in Pancreas
[21] = spleen, read-out: Uptake in Spleen
[22] = stomach, read-out: Uptake in Stomach
[23] = tumor, read-out: Uptake in Tumor

| SMILES | tissue to tissue ratio at 1 h [1, 2] | tissue to tissue ratio at 1 h [1, 3] | tissue to tissue ratio at 1 h [1, 4] | tissue to tissue ratio at 1 h [1, 5] | tissue to tissue ratio at 1 h [1, 6] | tissue to tissue ratio at 1 h [1, 7] | tissue to tissue ratio at 1 h [1, 8] | tissue to tissue ratio at 1 h [1, 9] | tissue to tissue ratio at 1 h [1, 10] | tissue to tissue ratio at 1 h [1, 11] | tissue to tissue ratio at 1 h [1, 12] | tissue uptake at 1 h [1, 13] [%ID/g] | tissue uptake at 1 h [1, 14] [%ID/g] | tissue uptake at 1 h ([1]; bone, read-out: Uptake in Bone) [%ID/g] | tissue uptake at 1 h [1, 15] [%ID/g] | tissue uptake at 1 h [1, 16] [%ID/g] | tissue uptake at 1 h [1, 17] [%ID/g] | tissue uptake at 1 h [1, 18] [%ID/g] | tissue uptake at 1 h ([1]; lung, read-out: Uptake in Lung) [%ID/g] | tissue uptake at 1 h [1, 19] [%ID/g] | other results |
| --- | --- | --- | --- | --- | --- | --- | --- | --- | --- | --- | --- | --- | --- | --- | --- | --- | --- | --- | --- | --- | --- |
| CC(C)C[C@H](NC(=O)C[C@H](O)[C@H](CC(C)C)NC(=O)[C@H](Cc1c[nH]cn1)NC(=O)CNC(=O)[C@@H](NC(=O)[C@H](C)NC(=O)[C@H](Cc1csc2ccccc12)NC(=O)[C@H](CCC(N)=O)NC(=O)[C@@H](Cc1ccccc1)NC(=O)CN1CCC(NC(=O)CN2CCN(CC(=O)O)CCN(CC(=O)O)CCN(CC(=O)O)CC2)CC1)C(C)C)C(N)=O [[^68Ga]Ga-[Bta^8]RM2, metal not drawn] ({DOTA}-[X1][dF]Q[Bta]AVGH[Sta]L-NH2) | 7.6 ± 2.6 | 29.5 ± 8.2 | 19.8 ± 5 | 12.2 ± 4.5 | 3.3 ± 0.6 | 10.7 ± 2.3 | 8.8 ± 3 | 50.6 ± 19.4 | 1.9 ± 1.3 | 18.7 ± 6.9 | 7.1 ± 0.7 | 1.95 ± 1.3 | 1.07 ± 0.27 | 0.3 ± 0.15 | 0.4 ± 0.1 | 0.66 ± 0.14 | 2.33 ± 0.25 | 0.73 ± 0.17 | 0.92 ± 0.22 | 0.19 ± 0.11 | tissue uptake at 1 h [1, 20]: < 8 %ID/g; tissue uptake at 1 h [1, 21]: 0.46 ± 0.16 %ID/g; tissue uptake at 1 h [1, 22]: 1.07 ± 0.14 %ID/g; tissue uptake at 1 h [1, 23]: ~7.5 %ID/g; Tumor-to-Adrenal ratio (PC-3 tumor xenograft): 13.3 ± 17.2 |
| CC(C)C[C@H](NC(=O)C[C@H](O)[C@H](CC(C)C)NC(=O)[C@H](Cc1c[nH]cn1)NC(=O)CNC(=O)[C@@H](NC(=O)[C@H](C)NC(=O)[C@H](Cc1c[nH]c2ccccc12)NC(=O)[C@H](CCO)NC(=O)[C@@H](Cc1ccccc1)NC(=O)CN1CCC(NC(=O)CN2CCN(CC(=O)O)CCN(CC(=O)O)CCN(CC(=O)O)CC2)CC1)C(C)C)C(N)=O [[^68Ga]Ga-[Hse^7]RM2, metal not drawn] ({DOTA}-[X1][dF][hSer]WAVGH[Sta]L-NH2) | 1.9 ± 0.1 | 7.8 ± 0.7 | 6 ± 0.9 | 5 ± 0.3 | 2.2 ± 0.2 | 5.1 ± 0.5 | 3.3 ± 0.6 | 22.8 ± 3.4 | 0.9 ± 0.1 | 5 ± 0.7 | 4.1 ± 0.3 | 2.47 ± 0.3 | 3.92 ± 0.07 | 0.98 ± 0.12 | 1.29 ± 0.14 | 1.52 ± 0.1 | 3.51 ± 0.2 | 1.49 ± 0.06 | 2.33 ± 0.28 | 0.34 ± 0.04 | tissue uptake at 1 h [1, 20]: < 8 %ID/g; tissue uptake at 1 h [1, 21]: 1.55 ± 0.15 %ID/g; tissue uptake at 1 h [1, 22]: 1.88 ± 0.06 %ID/g; tissue uptake at 1 h [1, 23]: ~7.5 %ID/g; Tumor-to-Adrenal ratio (PC-3 tumor xenograft): 1.4 ± 1.1 |

Source: article PMC12401824, “Studies on the impact of modifications at the Gln-Trp site in RM2-based GRPR ligands” (EJNMMI Research, 2025)
